# Data: US20110312914A1, “CARBON MONOXIDE REMOVAL AGENT” (priority 2009, published 2011)
# Experiments:
# Serum albumin (RSA) = biological target: T1, Serum albumin (RSA) (Rattus norvegicus, UniProt P02770); assay: ultraviolet-visible titration of FeTPPS solution with RSA solution; format: binding; conditions: 5×10^−6 M FeTPPS, PBS buffer pH 7.4
# T1 construct: purchased SIGMA; Co., Ltd
# Text: Serum albumin (RSA) is a protein component of the highest content in blood and is known to have a property of taking in various hydrophobic molecules. FeTPPS is not an exception and is known to bind strongly to serum albumin (see, for example, V. E. Yushmanov et al, Mag. Res. Imaging, 14, 255-261 (1996), T. T. Tominaga et al, J. Inorg. Biochem., 65, 235-244 (1997), etc.). The effect of inducing urinary excretion of FeTPPS by Py3CD was thus compared with that by RSA. Specifically, an experiment was performed as follows.
# FeTPPS was dissolved in a PBS buffer (pH 7.4) to prepare a 5 μM solution, and Py3CD and RSA (made by SIGMA. Co., Ltd.) were separately dissolved in the PBS buffer (pH 7.4) to prepare respective stock solutions. Ultraviolet-visible absorption spectra were measured with the same apparatuses as those used in EXAMPLE 1.
# The FeTPPS solution was placed in a cuvette, ultraviolet-visible absorption spectra were measured while adding fixed amounts of the RSA solution to the cuvette, and at a point at which changes reached saturation, ultraviolet-visible absorption spectra were measured while adding the Py3CD solution in place of the RSA solution. FIG. 4(a) is a diagram showing the changes in the ultraviolet-visible absorption spectra and FIG. 4(b) is a titration plot.
# [1] = diafiltration test, kidney model using an ultrafiltration membrane (molecular weight cutoff 30,000); format: in vitro ADME
# Procedure: The mechanism by which the carbon monoxide removal agent according to the present invention is excreted from blood into urine via kidneys was examined by way of a kidney model using an ultrafiltration membrane. Specifically, an experiment was performed as follows.
# FeTPPS, RSA, and Py3CD (procured from the same firms as in EXAMPLE 3) were respectively dissolved in a PBS buffer (pH 7.4) to prepare 0.22 μM solutions. Also, ultraviolet-visible absorption spectra were measured using the same apparatuses as in EXAMPLE 1. As the ultrafiltration membrane, a stirred cell (Model 8050 made by Millipore Corp.) with an ultrafiltration membrane with a molecular weight cutoff of 30,000 attached was used.
# Equivalent amounts of the FeTPPS solution and the RSA solution were mixed to prepare an equimolar mixture, and the equimolar mixture solution was placed in the stirred cell that was set above a recovery beaker. While pressurizing with nitrogen gas, a filtrate was recovered at every fixed amount and subject to ultraviolet-visible absorption spectral analysis.
# At a point at which 20 mL of the filtrate was recovered, the Py3CD solution was added so that the molar amount of Py3CD was equal to the molar amount of each of FeTPPS and RSA in the residual solution. […]
# [2] = effect of the cyclodextrin dimer on the urinary excretion of porphyrins, absorbance at 420 nm of urine; format: in vivo; conditions: rat, medical agent containing just the porphyrin (0.5 mM) administered, before Py3CD
# Procedure: The influence that the cyclodextrin dimer has on the excretion of the carbon monoxide removal agent in urine was examined. Specifically, each of the porphyrins was administered solitarily into a rat and absorbance at 420 nm, at which each administered porphyrin has a strong absorption band, was measured to examine the amount of the porphyrin excreted into urine. Also, after administration of each porphyrin, the cyclodextrin dimer was administered and the influence thereof was examined. Specifically, an experiment was performed as follows.
# Commercially available FeTPPS (made by Frontier Scientific Inc.) and TPPS (made by Tokyo Chemical Industry Co., Ltd.) with the central metal removed from FeTPPS were respectively dissolved separately to a concentration of 0.5 mM in a PBS buffer (pH 7.4) and thereby prepared as medical agents. Also, a Py3CD solution was prepared by dissolving Py3CD to a concentration of 0.6 mM in the PBS buffer (pH 7.4). Further, ultraviolet-visible absorption spectra were measured using the same apparatuses as in EXAMPLE 1.
# The medical agent containing FeTPPS was administered continuously to a rat by the syringe pump (1 mL/min). By the same method as in EXAMPLE 1, urine was sampled every 30 minutes from the start of administration and the change with time of the absorbance at 420 nm was examined. […]
# T1 sequence (P02770 25-608): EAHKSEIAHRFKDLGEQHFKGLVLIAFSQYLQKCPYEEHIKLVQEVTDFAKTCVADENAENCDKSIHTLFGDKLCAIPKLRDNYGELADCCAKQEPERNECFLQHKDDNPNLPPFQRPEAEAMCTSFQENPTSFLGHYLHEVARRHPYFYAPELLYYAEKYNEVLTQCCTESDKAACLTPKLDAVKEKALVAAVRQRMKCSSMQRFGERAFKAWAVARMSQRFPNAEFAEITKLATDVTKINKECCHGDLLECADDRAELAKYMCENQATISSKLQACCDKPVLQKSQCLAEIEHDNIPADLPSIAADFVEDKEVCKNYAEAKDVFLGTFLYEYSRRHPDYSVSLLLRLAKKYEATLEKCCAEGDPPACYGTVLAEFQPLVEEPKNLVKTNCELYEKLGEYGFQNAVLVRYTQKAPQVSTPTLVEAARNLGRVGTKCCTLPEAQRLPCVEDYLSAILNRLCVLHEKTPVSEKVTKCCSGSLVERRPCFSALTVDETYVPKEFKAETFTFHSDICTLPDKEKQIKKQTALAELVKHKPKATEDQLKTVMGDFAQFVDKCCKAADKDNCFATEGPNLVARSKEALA
Compound,RSA amount at which the spectral changes reach saturation (Serum albumin (RSA)),number of FeTPPS molecules that can bind to a single RSA molecule (Serum albumin (RSA)),"passage through the ultrafiltration membrane ([1]; FeTPPS held by RSA (equimolar mixture), before Py3CD addition)",passage through the ultrafiltration membrane ([1]; FeTPPS released from RSA by addition of Py3CD and included in Py3CD),excretion of porphyrin in urine [2]
"5,10,15,20-tetrakis(4-sulfonatophenyl)porphyrin (II) iron complex [FeTPPS]",approximately ⅓,approximately three,cannot pass through the ultrafiltration membrane,capable of passing through the ultrafiltration membrane,not excreted at all in urine
"O=S(=O)(O)c1ccc(-c2c3nc(c(-c4ccc(S(=O)(=O)O)cc4)c4ccc([nH]4)c(-c4ccc(S(=O)(=O)O)cc4)c4nc(c(-c5ccc(S(=O)(=O)O)cc5)c5ccc2[nH]5)C=C4)C=C3)cc1 [TPPS, reference compound]",,,,,not excreted at all in urine
